In patent US20120094964A1, “SULFAMOYL BENZOIC ACID DERIVATIVES AS TRPM8 ANTAGONISTS” (priority 2009, published 2012) one finds IC50 data, which are given here for 39 compounds.

The target of the test is T1, human TRPM8 (Homo sapiens, UniProt Q7Z2W7).
T1 construct: expressed in transfected cells
Briefly: In Vitro human TRPM8 Functional Assay (intracellular Ca2+, Fluo4, FDSS, menthol activation). The class given is cell-based. The note with it: HEK293 cells stably expressing human TRPM8; activation with L-(-)-Menthol; 11-point dose-response. The method, boiled down:
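Fluo4-loaded HEK293 cells stably expressing TRPM8 were preincubated with compound for 5 min at room temperature, then stimulated with L-menthol (20 μl of 90 μM stock) while fluorescence was read. IC50 values come from 11-point curves fitted to the mean of duplicate wells.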

T1 sequence (Q7Z2W7 whole entry): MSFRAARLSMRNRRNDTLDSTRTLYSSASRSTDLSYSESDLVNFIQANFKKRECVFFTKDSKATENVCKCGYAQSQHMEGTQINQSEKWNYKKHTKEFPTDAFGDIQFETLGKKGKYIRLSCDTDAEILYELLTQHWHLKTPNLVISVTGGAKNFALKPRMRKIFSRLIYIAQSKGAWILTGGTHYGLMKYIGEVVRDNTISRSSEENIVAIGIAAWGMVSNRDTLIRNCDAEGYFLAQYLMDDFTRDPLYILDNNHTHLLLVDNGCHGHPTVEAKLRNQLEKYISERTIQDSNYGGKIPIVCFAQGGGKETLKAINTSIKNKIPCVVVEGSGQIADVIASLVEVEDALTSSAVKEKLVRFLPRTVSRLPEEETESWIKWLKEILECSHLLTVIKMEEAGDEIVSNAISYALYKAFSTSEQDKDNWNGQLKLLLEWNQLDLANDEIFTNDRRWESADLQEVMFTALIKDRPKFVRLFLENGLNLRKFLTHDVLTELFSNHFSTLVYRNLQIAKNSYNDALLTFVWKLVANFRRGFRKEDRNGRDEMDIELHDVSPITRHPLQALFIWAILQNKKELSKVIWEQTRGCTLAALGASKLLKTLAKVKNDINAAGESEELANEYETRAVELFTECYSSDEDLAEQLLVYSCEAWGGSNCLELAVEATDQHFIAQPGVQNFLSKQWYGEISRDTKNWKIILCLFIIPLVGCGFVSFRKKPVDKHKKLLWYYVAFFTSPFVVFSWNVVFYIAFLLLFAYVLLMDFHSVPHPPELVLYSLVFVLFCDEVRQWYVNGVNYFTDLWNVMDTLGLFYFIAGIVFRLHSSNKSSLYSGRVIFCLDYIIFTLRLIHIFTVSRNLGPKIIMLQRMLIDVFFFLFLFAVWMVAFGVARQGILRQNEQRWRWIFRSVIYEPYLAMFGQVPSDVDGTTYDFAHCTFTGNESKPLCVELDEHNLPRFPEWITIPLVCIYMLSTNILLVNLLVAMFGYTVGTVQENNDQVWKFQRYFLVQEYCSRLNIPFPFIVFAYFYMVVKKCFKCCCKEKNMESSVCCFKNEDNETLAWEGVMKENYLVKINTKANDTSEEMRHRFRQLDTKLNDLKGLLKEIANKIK

Turning to `O=C(O)c1ccc(S(=O)(=O)N(Cc2ccc(-c3cccnc3)cc2)c2ncc(C(F)(F)F)cc2Cl)cc1` [Example 154, 4-(N-(3-Chloro-5-(trifluoromethyl)pyridin-2-yl)-N-(4-(pyridin-3-yl)benzyl)sulfamoyl)benzoic acid], the IC50 – broadly, the point on the concentration scale where inhibition reaches its midpoint – is below 1000 nM.

Take `O=C(O)c1ccc(S(=O)(=O)N(Cc2ccc(-c3ccncc3)cc2)c2ncc(C(F)(F)F)cc2Cl)cc1` [Example 156]: the IC50 was below 1000 nM.

As to `O=C(O)c1ccc(S(=O)(=O)N(Cc2ccccc2)c2ncc(C(F)(F)F)cc2C2CC2)cc1` [Example 149, 4-(N-Benzyl-N-(3-cyclopropyl-5-(trifluoromethyl)pyridin-2-yl)sulfamoyl)benzoic acid], the IC50 is below 1000 nM.

`NC(=O)Nc1ccc(S(=O)(=O)N(Cc2ccccc2)c2ncc(C(F)(F)F)cc2Cl)cc1` [Example 195, N-Benzyl-N-(3-chloro-5-(trifluoromethyl)pyridin-2-yl)-4-ureidobenzenesulfonamide] came in with a half-inhibitory concentration (IC50) below 1000 nM.

Compound `CC1(c2ccc(CN(c3ncc(Cl)cc3Cl)S(=O)(=O)c3ccc(C(=O)O)cc3)cc2)CC1` [Example 70, 4-(N-(3,5-Dichloropyridin-2-yl)-N-(4-(1-methylcyclopropyl)benzyl)sulfamoyl)benzoic acid] yielded an IC50 below 1000 nM.

`O=C(CN(c1cccc(C(F)(F)F)c1)S(=O)(=O)c1ccccc1)NCc1ccccc1` [Example 7, N-Benzyl-2-(N-(3-(trifluoromethyl)phenyl)benzenesulfonamido)acetamide] had an IC50 of 10000 to 30000 nM.

For `COc1ccc(S(=O)(=O)N(Cc2ccccc2)c2ccccn2)cc1` [Example 132, N-Benzyl-4-methoxy-N-(pyridin-2-yl)benzene-sulfonamide], the IC50 is 1000 to 10000 nM.

As for `O=C(O)c1ccc(S(=O)(=O)N(Cc2ccccc2)c2ncc(C(F)(F)F)cc2Cl)cc1F` [Example 191, 4-(N-Benzyl-N-(3-chloro-5-(trifluoromethyl)pyridin-2-yl)sulfamoyl)-2-fluorobenzoic acid], the IC50 was below 1000 nM.

As for `Cc1cc(S(=O)(=O)N(Cc2ccccc2)c2ncc(C(F)(F)F)cc2Cl)ccc1C(=O)O` [Example 143, 4-(N-Benzyl-N-(3-chloro-5-(trifluoromethyl)pyridin-2-yl)sulfamoyl)-2-methylbenzoic acid], the IC50 was below 1000 nM.

As to `Cc1cc(Cl)cnc1N(Cc1ccc(F)c(Cl)c1)S(=O)(=O)c1ccc(C(=O)O)cc1` [Example 77, 4-(N-(5-Chloro-3-methylpyridin-2-yl)-N-(3-chloro-4-fluorobenzyl)sulfamoyl)benzoic acid], the half-inhibitory concentration (IC50) was below 1000 nM.

Turning to `Cn1cc(-c2ccc(CN(c3ncc(C(F)(F)F)cc3Cl)S(=O)(=O)c3ccc(C(=O)O)cc3)cc2)cn1` [Example 152, 4-(N-(3-Chloro-5-(trifluoromethyl)pyridin-2-yl)-N-(4-(1-methyl-1H-pyrazol-4-yl)benzyl)sulfamoyl)benzoic acid], the IC50 was below 1000 nM.

`O=C(O)c1ccc(S(=O)(=O)N(Cc2ccc(C(F)(F)F)cc2)c2ncc(Cl)cc2Cl)cc1` [Example 54, 4-(N-(3,5-Dichloropyridin-2-yl)-N-(4-(trifluoromethyl)benzyl)sulfamoyl)benzoic acid] had an IC50 below 1000 nM.

For `O=C(O)c1ccc(S(=O)(=O)N(Cc2cc(F)cc(F)c2)c2ncc(C(F)(F)F)cc2Cl)cc1` [Example 42, 4-(N-(3-Chloro-5-(trifluoromethyl)pyridin-2-yl)-N-(3,5-difluorobenzyl)sulfamoyl)benzoic acid], the IC50 is below 1000 nM.

In turn, `COc1ccc(-c2cnc(N(Cc3ccccc3)S(=O)(=O)c3ccc(C(=O)O)cc3)c(Cl)c2)cc1` [Example 186, 4-(N-Benzyl-N-(3-chloro-5-(4-methoxyphenyl)pyridin-2-yl)sulfamoyl)benzoic acid] yielded an IC50 below 1000 nM.

Take `O=C(O)c1ccc(S(=O)(=O)N(Cc2ccccc2F)c2ncc(C(F)(F)F)cc2Cl)cc1` [Example 20, 4-(N-(3-Chloro-5-(trifluoromethyl)pyridin-2-yl)-N-(2-fluorobenzyl)sulfamoyl)benzoic acid]: the IC50 is below 1000 nM.

`CC(C)c1ccc(CN(c2ncc(C(F)(F)F)cc2Cl)S(=O)(=O)c2ccc(C(=O)O)cc2)cc1` [Example 28, 4-(N-(3-Chloro-5-(trifluoromethyl)pyridin-2-yl)-N-(4-isopropylbenzyl)sulfamoyl)benzoic acid] returned an IC50 below 1000 nM.

`O=C(O)c1cc(S(=O)(=O)N(Cc2ccccc2)c2ccc(Cl)cc2)ccc1Cl` [Example 122, 5-(N-Benzyl-N-(4-chlorophenyl)sulfamoyl)-2-chlorobenzoic acid] returned an IC50 of 1000 to 10000 nM.

Turning to `COc1ccc(OC)c(C(C)N(c2ccc(C)cc2)S(=O)(=O)c2ccc(C)cc2)c1` (stereo not drawn) [Example 85, N-(1-(2,5-Dimethoxyphenyl)ethyl)-4-methyl-N-p-tolylbenzenesulfonamide], the half-maximal inhibitory concentration (IC50) fell in the range of 1000 to 10000 nM.

`Cc1cccc(N(C(C)c2ccccc2F)S(=O)(=O)c2cc(F)ccc2C)c1` (stereo not drawn) [Example 99, 5-Fluoro-N-(1-(2-fluoro-phenyl)ethyl)-2-methyl-N-m-tolylbenzenesulfonamide] yielded an IC50 of 1000 to 10000 nM.

In turn, `O=C(O)c1ccc(Cl)c(S(=O)(=O)N(Cc2ccccc2)c2ccccc2)c1` [Example 126, 3-(N-Benzyl-N-phenylsulfamoyl)-4-chlorobenzoic acid] gave an IC50 of 10000 to 30000 nM.

`COc1ccc(OC)c(C(C)N(c2ccc(F)cc2)S(=O)(=O)c2ccc(F)cc2C)c1` (stereo not drawn) [Example 135, N-(1-(2,5-Dimethoxyphenyl)ethyl)-4-fluoro-N-(4-fluoro-phenyl)-2-methylbenzene-sulfonamide] came in with an IC50 of 1000 to 10000 nM.

For `COc1cccc(C(C)N(c2cccc(OC)c2)S(=O)(=O)c2ccc(C)c(F)c2)c1` (stereo not drawn) [Example 103, 3-Fluoro-N-(3-methoxyphenyl)-N-(1-(3-methoxy-phenyl)ethyl)-4-methyl benzenesulfonamide], the IC50 is 1000 to 10000 nM.

On to `O=S(=O)(c1ccccc1)N(Cc1ccccc1)c1ccccn1` [Example 131, N-Benzyl-N-(pyridin-2-yl)benzenesulfonamide], for which the IC50 was 1000 to 10000 nM.

As to `O=S(=O)(c1ccc(CO)cc1)N(Cc1ccccc1)c1ncc(C(F)(F)F)cc1Cl` [Example 9, N-Benzyl-N-(3-chloro-5-(trifluoromethyl)pyridin-2-yl)-4-(hydroxymethyl)benzene-1-sulfonamide], the IC50 was below 1000 nM.

The compound `O=C(O)c1ccc(S(=O)(=O)N(Cc2ccccc2-c2ccccc2)c2ncc(C(F)(F)F)cc2Cl)cc1` [Example 165, 4-(N-([1,1′-Biphenyl]-2-ylmethyl)-N-(3-chloro-5-(trifluoromethyl)pyridin-2-yl)sulfamoyl)benzoic acid] had an IC50 below 1000 nM.

In turn, `NS(=O)(=O)Nc1ccc(S(=O)(=O)N(Cc2ccccc2)c2ncc(C(F)(F)F)cc2Cl)cc1` [Example 196, N-Benzyl-N-(3-chloro-5-(trifluoromethyl)pyridin-2-yl)-4-(sulfamoylamino)benzenesulfonamide] returned an IC50 below 1000 nM.

`O=C(O)c1ccc(S(=O)(=O)N(Cc2ccc(Cl)c(C(F)(F)F)c2)c2ncc(Cl)cc2Cl)cc1` [Example 66, 4-(N-(4-Chloro-3-(trifluoromethyl)benzyl)-N-(3,5-dichloropyridin-2-yl)sulfamoyl)benzoic acid] displayed an IC50 below 1000 nM.

Turning to `O=C(O)c1ccc(S(=O)(=O)N(CCN2CCCCC2)c2ccc(C(F)(F)F)cc2Cl)cc1` [Example 83, 4-(N-(2-Chloro-4-(trifluoromethyl)phenyl)-N-(2-(piperidin-1-yl)ethyl)sulfamoyl)benzoic acid], the IC50 lay within 1000 to 10000 nM.

On to `COc1ccc(N(C(C)c2ccccc2F)S(=O)(=O)c2ccc(F)c(Cl)c2)cc1` (stereo not drawn) [Example 97, 3-Chloro-4-fluoro-N-(1-(2-fluorophenyl)ethyl)-N-(4-methoxyphenyl) benzenesulfonamide], for which the IC50 lay in the range of 1000 to 10000 nM.

In turn, `COc1ccc(OC)c(C(C)N(c2cccc(F)c2)S(=O)(=O)c2cc(F)ccc2C)c1` (stereo not drawn) [Example 136, N-(1-(2,5-Dimethoxyphenyl)ethyl)-5-fluoro-N-(3-fluorophenyl)-2-methyl-benzenesulfonamide] gave a concentration for half-maximal inhibition (IC50) of 1000 to 10000 nM.

For the compound `O=C(O)c1ccc(Cl)c(S(=O)(=O)N(Cc2ccccc2)c2ccc(F)cc2)c1` [Example 123, 3-(N-Benzyl-N-(4-fluorophenyl)sulfamoyl)-4-chlorobenzoic acid], the IC50 lay within 10000 to 30000 nM.

Take `O=S(=O)(c1cccc2cccnc12)N(Cc1ccccc1)c1ccccn1` [Example 128, N-Benzyl-N-(pyridin-2-yl) quinoline-8-sulfonamide]: the IC50 lay within 1000 to 10000 nM.

Regarding `O=S(=O)(Nc1cccc(C(F)(F)F)c1)c1ccccc1` [Example 4, N-(3-(Trifluoromethyl)phenyl)benzenesulfonamide], the IC50 was in the range of 10000 to 30000 nM.

Turning to `O=C(O)c1ccc(S(=O)(=O)N(Cc2ccccc2)c2ncccc2Cl)cc1` [Example 37, 4-(N-Benzyl-N-(3-chloropyridin-2-yl)sulfamoyl)benzoic acid], the IC50 lay within 1000 to 10000 nM.

Consider `COc1ccc(N(C(C)c2ccccc2OC)S(=O)(=O)c2ccc(C)c(Cl)c2)cc1` (stereo not drawn) [Example 104, 3-Chloro-N-(4-methoxyphenyl)-N-(1-(2-methoxy-phenyl)ethyl)-4-methyl benzenesulfonamide], for which the IC50 was in the range of 10000 to 30000 nM.

Turning to `COc1ccccc1N(Cc1ccccc1)S(=O)(=O)c1cc(C(=O)O)ccc1Cl` [Example 118, 3-(N-Benzyl-N-(2-methoxyphenyl)sulfamoyl)-4-chlorobenzoic acid], the IC50 was in the range of 1000 to 10000 nM.

`O=C(O)c1ccc(S(=O)(=O)N(CCc2ccccc2)c2ncc(C(F)(F)F)cc2Cl)cc1` [Example 148, 4-(N-(3-Chloro-5-(trifluoromethyl)pyridin-2-yl)-N-phenethylsulfamoyl)benzoic acid] returned an IC50 below 1000 nM.

As to `O=S(=O)(c1ccc(F)cc1)N(Cc1ccccc1)c1ccccn1` [Example 108, N-Benzyl-4-fluoro-N-(pyridin-2-yl)benezene-sulfonamide], the IC50 was 1000 to 10000 nM.

Turning to `COc1cccc(N(C(C)c2cc(OC)ccc2OC)S(=O)(=O)c2ccccc2F)c1` (stereo not drawn) [Example 90, N-(1-(2,5-Dimethoxyphenyl)ethyl)-2-fluoro-N-(3-methoxyphenyl)benzene-sulfonamide], the IC50 was in the range of 1000 to 10000 nM.
